The COVID Moonshot data (paper PMC7615835)
“And” between values parts separate entries of the source, which are not always exact repeats. Identical values can stand only once.

target: SARS-CoV-2 Main Protease (SARS-CoV-2) (UniProt P0DTD1)

Going from `Cn1nncc1C(=O)N1Cc2ccc(Cl)cc2C(C(=O)Nc2cncc3ccccc23)C1` (centres undefined) to `O=C(Nc1cncc2ccccc12)C1CN(C(=O)c2cnco2)Cc2ccc(Cl)cc21` (centres undefined), the IC50 rises from 0.397 µM to 1.07 µM (2.7-fold).

`Cc1cc(Nc2cc(Cl)cc(CC(=O)Nc3cncc4ccccc34)c2)c(F)cc1Br` and `O=C(Cc1cc(Cl)cc(Nc2ccc(F)cc2I)c1)Nc1cncc2ccccc12` are within 1.5-fold of each other in IC50: 2.05 µM for the first, 1.76 µM for the second.

`O=C(Cc1cc(Cl)cc(Nc2ccc(F)cc2C(F)(F)F)c1)Nc1cncc2ccccc12` and `O=C(Cc1cc(Cl)cc(Nc2ncc(C(F)(F)F)cc2Cl)c1)Nc1cncc2ccccc12` are within 1.5-fold of each other in IC50: 1.56 µM for the first, 1.7 µM for the second.

Going from `C=CC(=O)N(c1ccc(C(F)(F)F)cc1)C(C(=O)NCCc1cccc(F)c1)c1cncc(C#N)c1` (centres undefined) to `CC(C)(C)c1ccc(N(C(=O)c2cnc[nH]2)C(C(=O)NCCc2cccc(F)c2)c2cccnc2)cc1` (centres undefined), the IC50 falls from 11.1 µM to 0.292 µM (38-fold).

Going from `COc1ccn2c(NC(=O)Cc3cccc(Cl)c3)cnc2c1` to `O=C(Cc1cccc(Cl)c1)Nc1cncc2cc(C(F)F)ccc12`, the IC50 falls from greater than 99.5 µM to 2.25 µM. The second is the more potent here.

Going from `COc1ccc2c(NC(=O)C3CCOc4ccc(Cl)cc43)[nH]nc2c1` (centres undefined) to `O=C(Cc1cccc(Cl)c1)Nc1cncc2ccc(OCCN3CCCC3)cc12`, the IC50 falls from greater than 99.5 µM to 1.13 µM.

Going from `Cn1ncc2cc(N(C(=O)c3cocn3)C(C(=O)NCCc3cccc(F)c3)c3cccnc3)ccc21` (centres undefined) to `CC(C)(O)c1ccc(N(C(=O)c2cocn2)C(C(=O)NCCc2cccc(F)c2)c2cccnc2)cc1` (centres undefined), the IC50 falls from 48 µM to 26.5 µM (1.8-fold).

`CNC(=O)c1ccc2cncc(NC(=O)C3CN(S(=O)(=O)CC4(C)CS(=O)(=O)C4)Cc4ccc(Cl)cc43)c2c1` (centres undefined) and `O=C1N(c2cncc3ccccc23)CCC12CN(S(=O)(=O)CC1(C(F)(F)F)CC1)Cc1ccc(Cl)cc12` (centres undefined) are within 1.5-fold of each other in IC50: 0.11 µM for the first, 0.157 µM for the second.

`O=C(Cc1c[nH]c2cc(Cl)ccc12)Nc1cccc2[nH]c(=O)[nH]c12` and `Cc1ccccc1C(C)NC(C)C(=O)Nc1ccc2[nH]c(=O)[nH]c2c1` (centres undefined) cannot be ordered by IC50: greater than 99.5 µM for the first, greater than 99.5 µM for the second.

Compared with `Cc1nnn(NC(=O)Cc2cccc(Cl)c2)c1C`, `O=C1CC(Oc2cc(Cl)cc(CC(=O)Nn3cnc4ccccc43)c2)N1` (centres undefined) is 5.8-fold higher in IC50: 14.2 µM for the first, 82.1 µM for the second.

First: COc1ccc([N+](=O)[O-])cc1COC(=O)c1cnc2ccccc2n1
Second: COc1ccc(N2CCN(C(=O)c3cc(=O)[nH]c4ccccc34)CC2)cc1
The IC50 of the first is higher: greater than 99.5 µM for the first, 14.7 µM for the second.

`C=CC(=O)NCc1ccccc1S(=O)(=O)NC(C)(C)C` and `CC(C)(C)c1ccc(N(C(=O)c2nc(=O)[nH][nH]2)C(C(=O)NCCc2cccc(F)c2)c2cccnc2)cc1` (centres undefined) cannot be ordered by IC50: greater than 99.5 µM for the first, greater than 99.5 µM for the second.

First: Cc1nc2scc(C)n2c1CN1CCN(Cc2ccsc2)CC1
Second: Cc1cccc(C)c1NC(=O)[C@@H]1CN(C(=O)CCl)CCN1S(=O)(=O)c1ccsc1 (stereo in doubt)
The IC50 of the first is higher: greater than 99.5 µM for the first, 1.64 µM for the second.

`O=C(Cc1cc(Cl)cc(N2CCN(C(=O)[C@@H]3COc4ccccc4O3)CC2)c1)Nc1cncc2ccccc12` (stereo in doubt) and `O=C(Cc1cc(Cl)cc(NCc2ccccc2Br)c1)Nc1cncc2ccccc12` are within 1.5-fold of each other in IC50: 2.74 µM for the first, 3.5 µM for the second.

Going from `O=C(NCCc1cccc(F)c1)C(c1cccnc1)N(C(=O)c1cocn1)c1cnn(-c2ccccc2)c1` (centres undefined) to `O=C(NCCc1cccc(F)c1)C(c1cccnc1)N(C(=O)c1cocn1)c1cn(Cc2ccccc2)cn1` (centres undefined), the IC50 rises from 2.95 µM to 27.3 µM (9.3-fold).

First: Cc1ccc(NC2=C(c3ccccc3)C(=O)N(Cc3cccnc3)C2=O)cc1C
Second: O=C1CC(c2ccc(N(C(=O)c3cocn3)C(C(=O)NCCc3cccc(F)c3)c3cccnc3)cc2)CC(=O)N1 (centres undefined)
The IC50 of the first is higher: greater than 99.5 µM for the first, 53.8 µM for the second. The second is the more potent here.

`Cc1cc(C)n(C2CCCN(C(=O)c3c[nH]c4ncccc34)C2)n1` (centres undefined) and `COC(=O)C1CC1C(=O)N1CCC(c2c[nH]c3ncccc23)CC1` (centres undefined) cannot be ordered by IC50: greater than 99.5 µM for the first, greater than 99.5 µM for the second.

`CC(C)(C)c1ccc(N(C(=O)c2cocn2)C(C(=O)NC2CCOCC2)c2cccnc2)cc1` (centres undefined) and `CC(C)(C)OC(=O)N1CCC(NC(=O)C(c2cccnc2)N(C(=O)c2cocn2)c2ccc(C(C)(C)C)cc2)C1` (centres undefined) are within 1.5-fold of each other in IC50: 3.9 µM for the first, 3.65 µM for the second.

Compared with `CC(C)OCc1cc(C(=O)N2CCC(C3CCNC3)CC2)ccc1F` (centres undefined), `Cc1ccncc1NC(=O)CN1CCC(C)CC1` is lower in IC50: greater than 99.5 µM for the first, 49.2 µM for the second. The second is the more potent here.

`COc1ccc(N(C(=O)c2ccco2)C(C(=O)NCCc2cccc(F)c2)c2cccnc2)cc1NC(=O)C1CCCCC1` (centres undefined) and `CS(=O)(=O)c1ccc(N(C(=O)c2cocn2)C(C(=O)NCCc2cccc(F)c2)c2cccnc2)cc1` (centres undefined) are within 1.5-fold of each other in IC50: 62.7 µM for the first, 75.9 µM for the second.

First: CC(C)(C)c1ccc(N(C(=O)C2CCCN2)C(C(=O)NCCc2cccc(F)c2)c2cccnc2)cc1 (centres undefined)
Second: O=C(NCCc1cccc(F)c1)C(c1cccnc1)N(C(=O)c1cocn1)c1cnc(C2CCC2)nc1 (centres undefined)
The IC50 of the first is higher: greater than 99.5 µM for the first, 69.1 µM for the second.

`Cc1cc2ncc(C(=O)Nc3ccc4oc(C)nc4c3)c(C)n2n1` and `O=C(Cc1nnn2ccccc12)N(Cc1ccccc1)c1ccc(N2CCCCC2)cc1` cannot be ordered by IC50: greater than 99.5 µM for the first, greater than 99.5 µM for the second.

`COc1cc(OC)nc(C#N)n1` was tested, and the IC50 was greater than 99.5 µM.

For `CC(=O)N1CCN(CC(=O)Nc2cncc3ccccc23)CC1`, the IC50 was > 99.5 µM and 51.7 µM.
For `C=CC(=O)N(c1ccc(C2(C)CC2)cc1)C(C(=O)Nc1ccc(Br)cc1)c1cccnc1` (centres undefined), the IC50 was 83.7 µM and 81.2 µM.
With `COC[C@@]1(C(=O)Nc2cncc3ccccc23)CCOc2cc(Cl)c(Cl)cc21` (stereo in doubt) the IC50 was 13 µM and 21.9 µM.
In the case of `CSC1=C(C#N)C2(CCCCC2)C(C#N)=C(NC(=O)CCl)N1`, the IC50 is reported as 0.745 µM and 1.75 µM.
